Target: T1, Human PTP1B (Homo sapiens, UniProt P18031)
T1 construct: Human PTP1B (amino acid residues 1-298, cloned from a human placental library); made in house; host or cells: E. coli BL21(DE3)
T1 sequence (P18031 1-298): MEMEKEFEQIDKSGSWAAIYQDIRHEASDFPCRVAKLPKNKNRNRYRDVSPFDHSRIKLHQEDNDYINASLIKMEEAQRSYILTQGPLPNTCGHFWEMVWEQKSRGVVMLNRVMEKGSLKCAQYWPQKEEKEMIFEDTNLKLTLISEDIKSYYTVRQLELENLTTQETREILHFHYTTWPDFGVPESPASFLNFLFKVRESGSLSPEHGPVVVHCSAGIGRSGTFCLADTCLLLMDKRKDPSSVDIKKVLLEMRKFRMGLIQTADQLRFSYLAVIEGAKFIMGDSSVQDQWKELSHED
Test: PTP1B activity, pNPP substrate, 96-well plate
Assay type: biochemical
Details: 2 mM, control wells
Description: Human PTP1B (amino acid residues 1-298, cloned from a human placental library), without the GST tag and thrombin cleavage site, was inserted into a pMB replicon and transformed into E. coli BL21(DE3), a strain containing a chromosomal copy of the gene for T7 RNA polymerase under control of a lacUV5 promoter. Expression of PTP1B was induced with isopropyl thiogalactose and cells were lysed in lysis buffer comprising 50 mM Tris-HCl pH 7.5, 10% glycerol, 1 mM EDTA, 3 mM DTT, 3 mM MgCl2, and 0.2 mg/ml lysozyme with 1 mg/ml DNAse I. The soluble protein was purified by ion exchange, hydrophobic interaction and gel exclusion chromatography for use in assays to identify PTP1B inhibitors. The plasmid pGEX2K-SHP2 which encoded the catalytic domain of human SHP-2 (residues 252-529) was used to transform E. coli cells. […]
Human PTP1B activity was measured using p-nitrophenol phosphate (pNPP) as substrate in a 96-well microtiter plate format. An assay pH of 7.2 is used for standard assays (measured extinction coefficient=9800 at pH 7.2).
Standard assays were conducted at room temperature in a total volume of 0.2 ml that contains Hepes buffer (50 mM, pH 7.2), NaCl (50 mM), EDTA (1 mM), DTT (1 mM), bovine serum albumin (1 mg/ml), pNPP (1.25 mM) and PTP1B (500 ng/ml, 13.5 nM). […] The OD^405 was subsequently measured. […]

With `[Na+].[Na+].[Na+].[O]=[V]([O-])([O-])[O-]` [sodium orthovanadate] the “inhibition of PTP1B-catalyzed hydrolysis of pNPP” value was “completely”.

Reference: patent publication US6498182B2, “Compounds” (Biovitrum AB, priority 2000, dated 2002)
